Assay results taken from patent US7943599B2 (priority 2005, dated 2011).
Like-named read-outs stand apart in the source and are kept apart here.

Assays:
alkaline phosphatase = experiment: Hydrolysis by phosphatase in phosphate buffer, HPLC of 3-aminopropane phosphoric acid formed; type: in vitro ADME; settings: alkaline phosphatase (Sigma-Aldrich), phosphate buffer pH 7.4, HPLC, FIG. 1
Protocol: In order to examine whether the sesamol, 3-aminopropane phosphoric acid diester is hydrolyzed by phosphatase present on the skin into sesamol and 3-aminopropane phosphoric acid, the following test was performed. The sesamol, 3-aminopropane phosphoric acid diester of Example 1 and phsophatase were added in phosphate buffer (pH 7.4), followed by hydrolysis. As the phosphatase, alkaline phosphatase commercially available from Sigma-Aldrich Co. was used. The amount of 3-aminopropane phosphoric acid formed as the hydrolysis progressed was measured by HPLC (high-performance liquid chromatography), and the measurement results are shown in FIG. 1.

Fibroblasts = type: cell-based; settings: 10^-4 M; for Procollagen Synthesis (%): 24 h, serum-free media, untreated group taken as 100%
Protocol: Fibroblasts were seeded into each well of a 24-well plate at density of 10^6 cells and cultured to 90% confluence. The cultured cells were cultured in serum-free media for 24 hours and then treated with 10^−4 M of each of tocopherol, sesamol and the sesamol derivative of Example 1, which have been dissolved in serum-free media. Then, the cells were cultured in a CO2 incubator for 24 hours. The supernatants of the cell culture media were collected and observed for an increase or decrease in procollagen using a Procollagen type (A) kit. The test results are shown in Table 2 below, in which the effect of each compound on the procollagen synthesis is compared with that of an untreated group, taken as 100%.

[1] = system: Human keratinocytes (HaCat); type: cell-based; settings: for Malonaldehyde and 4-hydroxy alkenal: HaCat, untreated group taken as 100
Protocol: Human keratinocytes (HaCat) were plated at a density of 1.0×10^6 per 60-mm dish and then cultured in penicillin/streptomycin-containing DMEM (10% FBS) media at conditions of 37° C. and 5% CO2 for 1 week. Then, the culture media were treated with 10^−4 M of each of sesamol, the sesamol derivative of Example 1, and tocopherol as appositive control, for 24 hours. At the next day, the media were treated with 4 mM of t-BHP (t-butyl hydroperoxide) together with each of said compounds and then cultured at conditions of 37° C. and 5% CO2 for 4 hours, after which the cells were collected. The collected cells were dissolved by repeatedly performing freezing/thawing processes, and the following tests were performed in accordance with the method described in an assay kit.
In other words, in the present invention, a lipid peroxide assay kit (Calbiochem) was used as a reagent, and lipid peroxidation was measured using the principle in which long-chain unsaturated fatty acids such as malonaldehyde and 4-hydroxy alkenal form stable compounds at 586 nm by reaction with said reagent. The measurement results are shown in Table 1 below in comparison with an untreated group taken as 100.

[2] = 10^-4 M compound 24 h, then 4 mM t-BHP together with compound 4 h

Compound	hydrolysis by phosphatase into sesamol and 3-aminopropane phosphoric acid (alkaline phosphatase)	Procollagen Synthesis (%) (Fibroblasts)	effect on collagen biosynthesis (in words) (Fibroblasts; fibroblasts)	Malonaldehyde and 4-hydroxy alkenal [1, 2]	antioxidant effect (in words) ([1]; 10^-4 M, t-BHP-treated HaCat, compared with sesamol and tocopherol)	Malonaldehyde and 4-hydroxy alkenal ([1]; 4 mM t-BHP alone, 4 h)
NCCCOP(=O)(O)Oc1ccc2c(c1)OCO2 [Sesamol derivative of Example 1, sesamol, 3-aminopropane phosphoric acid diester (I)]	can be hydrolyzed by phosphatase	125%	showed the effect of increasing collagen biosynthesis	260	antioxidant effect similar to those of sesamol and the positive control tocopherol	
CC(C)(C)OO [t-BHP, t-butyl hydroperoxide]						320
tocopherol		110%		270		
Oc1ccc2c(c1)OCO2 [Sesamol, sesamol]		103%		250		
